# From patent US20060286670A1, “Transplant acceptance inducing cells of monocytic origin and their preparation and use” (BLASTICON BIOTECHNOLOGISCHE FORSCHUNG GMBH, priority 2002, published 2006)
# System: PHA-stimulated lymphocytes
# Test: Mixed lymphocyte culture of PHA-stimulated lymphocytes and TAIC, 3[H]-thymidine incorporation
# Type: cell-based, human
# Conditions: 2 μmol 1-MT
# Experimental: In order to clarify, whether the inhibitor of the enzyme indolamine-2,3-dioxygenase (IDO) 1-methyltryptophane (1-MT) influences the suppressor function of the TAIC generated in the “Mo” and “Mo+Ly” set ups (see Example 11), a variety of mixed lymphocyte cultures (MLC) with PHA (phytohaemagglutinine) stimulated T-cells in the presence and in the absence of 1-MT were established.
# In these mixed lymphocyte cultures 50.000 lymphocytes with 2 μg […] were transferred into the wells of a 96-well-plate, followed by a proliferation period over 144 hours (indicated as “PhaLy”). Lymphocytes only cultivated in medium without addition of PHA were run as a further control (indicated as “Ly”).
# In order to determine the proliferation of PHA-stimulated lymphocytes in the different co-cultures, the following 4 set ups were run and examined:
# In this arrangement, the amount of the radio activity determined is a measure for the amount of labeled thymidine incorporated into the DNA, and therefore a measure for the proliferation rate of the lymphocytes. The values reported in FIG. 8 correspond to mean values from triple determinations of 3 experiments each with indication of the standard deviation.
smiles,measurement,value
"Cn1cc(C[C@H](N)C(=O)O)c2ccccc21 [1-MT, 1-methyltryptophane]",influence on the suppressor function of the TAIC,increases the suppressor function of the TAIC synergistically
